These results are taken from PMC11546340 (BMC Chemistry, 2024).

The nature of data set [1]: Plasma protein binding, HT Dialysis 96-well apparatus, LC-MS/MS. In kind it is in vitro ADME. The conditions noted are these: male, human, plasma, pH 7.4, Recovery (%), mean, n = 4.
The next data set concerns human plasma. The description is as above. The conditions noted are these: 3 µM. In kind it is in vitro ADME.

“And” between values parts separate entries of the source, which are not always exact repeats. Equal values may be shown once.

For `O=C(O)Cc1ccccc1Nc1c(Cl)cccc1Cl` [Diclofenac], the recovery at 5 h, 3 µM in data set [1] is 94.2%. Besides, in the data set on human plasma (individual replicates 1-4), the “Bound (%)” value is 99.01% and 99.07% and 98.91% and 98.99%; the “Recovery (%)” value was 80.60% and 94.07% and 119.11% and 83.10%; the “Unbound (%)” value is 0.99% and 0.93% and 1.09% and 1.01%. Further, the “Unbound (%)” value in the data set with human plasma (mean, n = 4) was 1.01%.
